Measurements: PMC13046274, “Post-translational modifications of GlmR integrate metabolic and stress signals to maintain cell envelope homeostasis in Bacillus subtilis” (PLOS Genetics, 2026)

Key:
GlmR [1] = target: T1, GlmR (Bacillus subtilis, UniProt O06974); assay: fluorescence titration of FITC-labeled GlmR, single-site fit; type: binding
T1 construct: gene mgfK; purified recombinant B. subtilis GlmR, FITC-labeled (pET28a, from E. coli)

GlmR [2] = target: T2, GlmR (Bacillus subtilis, UniProt O06974, T304A); assay: fluorescence titration of FITC-labeled GlmR T304A, single-site fit; type: binding
T2 construct: gene mgfK; purified recombinant B. subtilis GlmR T304A, FITC-labeled (pET28a, from E. coli)
T2 sequence (O06974 whole entry T304A): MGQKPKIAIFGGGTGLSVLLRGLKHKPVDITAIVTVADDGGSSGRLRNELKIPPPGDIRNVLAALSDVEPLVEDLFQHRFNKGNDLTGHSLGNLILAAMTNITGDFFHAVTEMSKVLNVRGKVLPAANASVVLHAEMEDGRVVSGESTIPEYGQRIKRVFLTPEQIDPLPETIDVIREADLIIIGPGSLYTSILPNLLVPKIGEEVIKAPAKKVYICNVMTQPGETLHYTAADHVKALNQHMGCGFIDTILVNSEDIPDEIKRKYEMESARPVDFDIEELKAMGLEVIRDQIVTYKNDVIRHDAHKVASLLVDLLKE

T1 sequence (O06974 whole entry): as the sequence (O06974 whole entry T304A) above, with A304T counted along it

CC(=O)N[C@H]1[C@@H](OP(=O)(O)OP(=O)(O)OC[C@H]2O[C@@H](n3ccc(=O)[nH]c3=O)[C@H](O)[C@@H]2O)O[C@H](CO)[C@@H](O)[C@@H]1O [UDP-GlcNAc] was tested, and the Kd (GlmR [1]) was 280 ± 40 µM and the Kd (GlmR [2]) was 1670 ± 310 µM.
